{"source": "ChEMBL document CHEMBL1150386", "about": "(J Med Chem, 2008)", "key": {"Acetylcholinesterase [1]": {"molecular_target": "T1, Acetylcholinesterase (Torpedo californica, UniProt P04058)", "T1 sequence (P04058 whole entry)": "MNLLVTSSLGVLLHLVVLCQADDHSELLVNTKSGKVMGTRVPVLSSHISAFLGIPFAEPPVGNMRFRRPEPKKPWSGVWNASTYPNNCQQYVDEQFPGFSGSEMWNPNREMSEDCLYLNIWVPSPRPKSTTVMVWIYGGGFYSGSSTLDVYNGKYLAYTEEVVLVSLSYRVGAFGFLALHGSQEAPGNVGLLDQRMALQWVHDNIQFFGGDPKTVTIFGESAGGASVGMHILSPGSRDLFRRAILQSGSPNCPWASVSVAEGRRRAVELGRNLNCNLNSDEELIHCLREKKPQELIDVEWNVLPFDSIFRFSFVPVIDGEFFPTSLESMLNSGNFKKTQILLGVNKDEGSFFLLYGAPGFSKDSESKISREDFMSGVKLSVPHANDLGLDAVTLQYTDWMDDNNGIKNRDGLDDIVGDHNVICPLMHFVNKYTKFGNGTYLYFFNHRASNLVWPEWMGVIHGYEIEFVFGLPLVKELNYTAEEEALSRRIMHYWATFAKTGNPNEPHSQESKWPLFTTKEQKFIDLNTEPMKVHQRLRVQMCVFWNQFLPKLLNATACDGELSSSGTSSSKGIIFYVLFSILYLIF"}, "Cholinesterase [2]": {"molecular_target": "Cholinesterase (Mus musculus, UniProt Q03311)", "sequence (Q03311 whole entry)": "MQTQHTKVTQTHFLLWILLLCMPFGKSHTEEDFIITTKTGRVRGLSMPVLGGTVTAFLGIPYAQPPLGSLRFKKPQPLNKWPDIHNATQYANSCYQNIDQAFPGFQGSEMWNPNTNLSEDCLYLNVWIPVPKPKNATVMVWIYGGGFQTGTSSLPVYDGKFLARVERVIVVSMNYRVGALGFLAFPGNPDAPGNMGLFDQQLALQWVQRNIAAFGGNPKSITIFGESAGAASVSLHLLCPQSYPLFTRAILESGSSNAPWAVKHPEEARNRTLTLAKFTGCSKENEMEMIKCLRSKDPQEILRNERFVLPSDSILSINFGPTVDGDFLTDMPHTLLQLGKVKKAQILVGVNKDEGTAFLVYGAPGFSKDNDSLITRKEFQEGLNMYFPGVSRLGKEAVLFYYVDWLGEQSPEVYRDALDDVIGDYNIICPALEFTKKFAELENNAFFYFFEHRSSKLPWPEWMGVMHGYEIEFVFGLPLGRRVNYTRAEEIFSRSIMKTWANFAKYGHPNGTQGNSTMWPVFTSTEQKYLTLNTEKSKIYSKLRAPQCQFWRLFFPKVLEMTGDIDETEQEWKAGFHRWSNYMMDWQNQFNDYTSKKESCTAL", "description": "Inhibition of mouse BuChE"}, "Acetylcholinesterase [3]": {"molecular_target": "T2, Acetylcholinesterase (Bos taurus, UniProt P23795)", "T2 sequence (P23795 whole entry)": "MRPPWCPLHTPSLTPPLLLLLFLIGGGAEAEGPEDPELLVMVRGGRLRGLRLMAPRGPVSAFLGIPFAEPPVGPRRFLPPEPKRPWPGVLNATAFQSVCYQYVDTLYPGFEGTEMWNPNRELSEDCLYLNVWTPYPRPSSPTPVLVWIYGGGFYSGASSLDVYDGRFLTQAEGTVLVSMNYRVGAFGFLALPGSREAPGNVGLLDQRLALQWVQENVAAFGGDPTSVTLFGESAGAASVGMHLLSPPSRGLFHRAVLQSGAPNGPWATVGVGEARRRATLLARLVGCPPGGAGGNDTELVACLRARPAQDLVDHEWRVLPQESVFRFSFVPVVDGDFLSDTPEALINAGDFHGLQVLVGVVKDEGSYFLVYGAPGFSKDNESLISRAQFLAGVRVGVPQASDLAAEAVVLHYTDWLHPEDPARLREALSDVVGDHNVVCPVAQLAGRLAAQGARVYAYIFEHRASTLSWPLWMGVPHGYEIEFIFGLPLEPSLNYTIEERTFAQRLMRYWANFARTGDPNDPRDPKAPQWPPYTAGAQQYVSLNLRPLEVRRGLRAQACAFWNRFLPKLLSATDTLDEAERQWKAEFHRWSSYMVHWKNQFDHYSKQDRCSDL", "test": "Inhibition of bovine AChE"}, "Acetylcholinesterase [4]": {"molecular_target": "T3, Acetylcholinesterase (Rattus norvegicus, UniProt P37136)", "T3 sequence (P37136 whole entry)": "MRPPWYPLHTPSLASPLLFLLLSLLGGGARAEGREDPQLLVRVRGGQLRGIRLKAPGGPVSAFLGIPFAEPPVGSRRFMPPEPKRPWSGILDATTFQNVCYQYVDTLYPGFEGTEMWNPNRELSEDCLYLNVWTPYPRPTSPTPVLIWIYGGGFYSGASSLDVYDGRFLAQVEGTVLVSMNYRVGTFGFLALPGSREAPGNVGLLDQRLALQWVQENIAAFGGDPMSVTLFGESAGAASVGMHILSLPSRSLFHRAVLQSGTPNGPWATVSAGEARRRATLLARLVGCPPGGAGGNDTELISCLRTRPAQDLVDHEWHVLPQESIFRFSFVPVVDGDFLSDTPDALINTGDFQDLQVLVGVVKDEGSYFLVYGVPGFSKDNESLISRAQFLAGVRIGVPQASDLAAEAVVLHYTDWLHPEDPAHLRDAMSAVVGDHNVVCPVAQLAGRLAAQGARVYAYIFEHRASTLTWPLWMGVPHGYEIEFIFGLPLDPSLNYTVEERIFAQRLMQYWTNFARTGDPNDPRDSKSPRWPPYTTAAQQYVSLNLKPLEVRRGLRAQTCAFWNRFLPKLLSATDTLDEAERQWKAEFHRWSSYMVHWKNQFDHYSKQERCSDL"}, "Butyrylcholinesterase": {"molecular_target": "Butyrylcholinesterase (Rattus norvegicus, UniProt Q9JKC1)", "sequence (Q9JKC1 whole entry)": "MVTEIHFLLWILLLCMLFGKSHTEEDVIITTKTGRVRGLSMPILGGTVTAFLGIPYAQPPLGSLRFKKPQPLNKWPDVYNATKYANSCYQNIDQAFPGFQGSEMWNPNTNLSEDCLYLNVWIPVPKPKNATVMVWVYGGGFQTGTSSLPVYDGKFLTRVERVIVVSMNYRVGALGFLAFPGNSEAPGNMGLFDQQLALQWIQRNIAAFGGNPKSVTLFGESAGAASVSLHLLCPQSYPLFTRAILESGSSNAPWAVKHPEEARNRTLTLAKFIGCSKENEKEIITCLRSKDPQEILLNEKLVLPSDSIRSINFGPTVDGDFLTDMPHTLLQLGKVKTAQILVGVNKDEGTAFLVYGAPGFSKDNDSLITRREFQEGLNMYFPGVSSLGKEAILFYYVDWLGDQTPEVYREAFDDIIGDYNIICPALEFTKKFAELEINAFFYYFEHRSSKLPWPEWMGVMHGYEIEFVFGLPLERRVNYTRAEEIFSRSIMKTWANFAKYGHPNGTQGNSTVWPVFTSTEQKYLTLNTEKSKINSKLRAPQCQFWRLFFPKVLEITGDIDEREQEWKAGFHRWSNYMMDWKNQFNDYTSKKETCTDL"}, "Acetylcholinesterase [5]": {"molecular_target": "T1, Acetylcholinesterase", "test": "Inhibition of Torpedo californica AChE assessed as carbamylation", "set-up": "species or system Tetronarce californica"}, "Acetylcholinesterase [6]": {"molecular_target": "T4, Acetylcholinesterase (Mus musculus, UniProt P21836)", "T4 sequence (P21836 whole entry)": "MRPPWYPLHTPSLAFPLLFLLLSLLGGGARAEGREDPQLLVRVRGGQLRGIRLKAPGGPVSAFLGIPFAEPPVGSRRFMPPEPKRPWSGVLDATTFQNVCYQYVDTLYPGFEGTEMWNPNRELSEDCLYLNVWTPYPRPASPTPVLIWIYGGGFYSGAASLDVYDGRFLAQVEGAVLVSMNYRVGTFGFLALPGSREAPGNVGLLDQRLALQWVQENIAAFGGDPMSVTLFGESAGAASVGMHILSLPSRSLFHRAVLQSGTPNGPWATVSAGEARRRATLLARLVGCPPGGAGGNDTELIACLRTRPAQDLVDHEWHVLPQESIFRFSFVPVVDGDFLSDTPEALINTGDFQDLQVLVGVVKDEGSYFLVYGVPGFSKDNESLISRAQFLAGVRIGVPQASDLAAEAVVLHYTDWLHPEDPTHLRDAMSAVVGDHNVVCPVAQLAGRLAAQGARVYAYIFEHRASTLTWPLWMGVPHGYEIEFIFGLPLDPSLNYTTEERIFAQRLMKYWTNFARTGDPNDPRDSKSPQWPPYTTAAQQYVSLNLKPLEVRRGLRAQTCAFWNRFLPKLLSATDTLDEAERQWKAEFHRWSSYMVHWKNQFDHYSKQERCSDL", "description": "Binding affinity to mouse AChE"}, "Acetylcholinesterase [7]": {"molecular_target": "T4, Acetylcholinesterase", "remark": "listed apart in the source", "description": "Binding affinity to mouse AChE by equilibrium binding assay"}, "Cholinesterase [8]": {"molecular_target": "Cholinesterase (Equus caballus, UniProt P81908)", "sequence (P81908 whole entry)": "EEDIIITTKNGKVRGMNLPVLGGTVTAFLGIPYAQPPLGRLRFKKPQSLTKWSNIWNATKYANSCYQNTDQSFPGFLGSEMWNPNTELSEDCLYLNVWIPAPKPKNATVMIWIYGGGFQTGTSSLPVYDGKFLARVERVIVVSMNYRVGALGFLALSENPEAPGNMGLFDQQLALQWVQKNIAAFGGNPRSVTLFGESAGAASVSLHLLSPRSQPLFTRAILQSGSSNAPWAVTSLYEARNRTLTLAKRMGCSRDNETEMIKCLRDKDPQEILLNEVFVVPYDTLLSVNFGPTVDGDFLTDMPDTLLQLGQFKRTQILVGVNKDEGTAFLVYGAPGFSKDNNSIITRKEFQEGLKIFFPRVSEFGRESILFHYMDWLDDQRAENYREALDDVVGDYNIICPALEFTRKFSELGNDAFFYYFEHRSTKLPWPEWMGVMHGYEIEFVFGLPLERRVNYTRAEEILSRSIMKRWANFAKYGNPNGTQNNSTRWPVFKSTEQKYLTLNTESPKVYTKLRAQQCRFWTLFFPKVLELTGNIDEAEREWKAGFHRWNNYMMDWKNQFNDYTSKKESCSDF", "test": "Inhibition of horse BuChE"}, "Acetylcholinesterase [9]": {"molecular_target": "Acetylcholinesterase (Homo sapiens, UniProt P22303)", "sequence (P22303 whole entry)": "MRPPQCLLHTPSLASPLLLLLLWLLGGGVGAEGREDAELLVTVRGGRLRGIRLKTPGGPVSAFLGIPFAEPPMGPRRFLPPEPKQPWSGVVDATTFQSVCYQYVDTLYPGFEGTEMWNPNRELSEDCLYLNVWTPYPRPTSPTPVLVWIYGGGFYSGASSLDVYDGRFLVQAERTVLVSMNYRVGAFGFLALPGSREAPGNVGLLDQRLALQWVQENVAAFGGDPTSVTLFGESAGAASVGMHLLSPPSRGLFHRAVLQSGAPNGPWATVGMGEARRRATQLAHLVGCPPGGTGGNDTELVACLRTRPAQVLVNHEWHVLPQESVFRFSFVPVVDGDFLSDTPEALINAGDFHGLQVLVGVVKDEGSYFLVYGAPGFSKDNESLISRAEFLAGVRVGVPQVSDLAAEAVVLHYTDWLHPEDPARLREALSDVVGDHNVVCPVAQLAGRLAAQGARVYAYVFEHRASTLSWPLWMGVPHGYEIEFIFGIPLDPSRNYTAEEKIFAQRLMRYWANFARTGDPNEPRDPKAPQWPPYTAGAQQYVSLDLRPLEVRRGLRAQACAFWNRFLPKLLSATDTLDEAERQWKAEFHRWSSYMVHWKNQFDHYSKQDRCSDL", "test": "Binding affinity to human AChE"}, "[10]": {"test": "Ratio of Ki for fetal bovine serum AChE to Ki for horse BuChE"}}}
{"smiles": "CCc1ccccc1NC(=O)Oc1ccc2c(c1)[C@]1(C)CCN(C)O[C@@H]1N2C", "note": "[GANSTIGMINE]", "values": [{"measurement": "IC50", "setting": "Acetylcholinesterase [1]", "result": 5120, "unit": "nM"}]}
{"smiles": "Nc1ccc2c(c1)c(-c1ccccc1)[n+](CCCCCCc1cnnn1CCNc1c3c(nc4ccccc14)CCCC3)c1cc(N)ccc21", "values": [{"measurement": "Ki", "setting": "Cholinesterase [2]", "result": 0.72, "unit": "nM"}]}
{"smiles": "C=CC[N+](C)(C)c1ccc(CCC(=O)CCc2ccc([N+](C)(C)CC=C)cc2)cc1", "values": [{"measurement": "Ki", "setting": "Acetylcholinesterase [3]", "result": 57.1, "unit": "nM"}]}
{"smiles": "NCCCCCCCCNc1c2c(nc3ccccc13)CCCC2", "values": [{"measurement": "IC50", "setting": "Acetylcholinesterase [4]", "result": 1.5, "unit": "nM"}]}
{"smiles": "c1ccc2c(c1)NC1CCCCC1=C2NCCCCCCCCNC1CCNC2CCCCC21", "note": "(stereo unspecified)", "values": [{"measurement": "IC50", "setting": "Acetylcholinesterase [4]", "result": 8.8, "unit": "nM"}, {"measurement": "IC50", "setting": "Butyrylcholinesterase", "result": 110, "unit": "nM"}]}
{"smiles": "CCN(C)C(=O)Oc1cccc([C@H](C)N(C)C)c1", "note": "[RIVASTIGMINE]", "values": [{"measurement": "Ki", "setting": "Acetylcholinesterase [5]", "result": 0.033, "unit": "M⁻¹ s⁻¹"}]}
{"smiles": "CC[N+](CC)(CCNC(=O)C(=O)NCC[N+](CC)(CC)Cc1ccccc1Cl)Cc1ccccc1Cl", "note": "[AMBENONIUM]", "values": [{"measurement": "Kd", "setting": "Acetylcholinesterase [6]", "result": 54000, "unit": "nM"}, {"measurement": "Kd", "setting": "Acetylcholinesterase [7]", "result": 46000, "unit": "nM"}]}
{"smiles": "c1ccc2c(NCCCCCCCNc3c4c(nc5ccccc35)CCCC4)c3c(nc2c1)CCCC3", "values": [{"measurement": "Ki", "setting": "Cholinesterase [8]", "result": 2, "unit": "nM"}]}
{"smiles": "Nc1ccc2c(c1)c(-c1ccccc1)[n+](CCCCCCc1cn(CCNc3c4c(nc5ccccc35)CCCC4)nn1)c1cc(N)ccc21", "values": [{"measurement": "Ki", "setting": "Cholinesterase [2]", "result": 0.46, "unit": "nM"}]}
{"smiles": "C[N+](C)(C)CCCCCCCCCC[n+]1c(-c2ccccc2)cc(N)c2ccc3ccc(N)cc3c21", "values": [{"measurement": "Kd", "setting": "Acetylcholinesterase [6]", "result": 79000, "unit": "nM"}, {"measurement": "Kd", "setting": "Acetylcholinesterase [7]", "result": 160000, "unit": "nM"}]}
{"smiles": "CCC1=CC2Cc3nc4cc(Cl)ccc4c(N)c3[C@@H](C1)C2", "note": "[HUPRINE X]", "values": [{"measurement": "Ki", "setting": "Acetylcholinesterase [9]", "result": 0.67, "unit": "nM"}]}
{"smiles": "CN(CCCNc1c2c(nc3ccccc13)CCCC2)CCCSc1c2c(nc3ccccc13)CCCC2", "values": [{"measurement": "Ratio Ki", "setting": "[10]", "result": 2.17}, {"measurement": "Ki", "setting": "Cholinesterase [8]", "result": 4.2, "unit": "nM"}]}
